In patent publication US20080153796A1, “Promotion of wound contraction” (RENOVO LIMITED, priority 2006, published 2008):

How the values were obtained:
[1] = test system: full thickness cutaneous excisional wounds (punch biopsies); assay: Wound width three days after punch biopsies in human volunteers (histological assessment); type: in vivo; settings: day 3; for average wound width: single intradermal injection 10-30 min before 3 mm punch biopsy
From the text: A single site, double-blind study was undertaken to illustrate the efficacy of medicaments of the invention in promoting contraction of punch biopsy wounds in healthy male and post-menopausal female subjects. The control treatments used in this study were Placebo (vehicle) and Standard Care (moist wound healing dressings).
44 healthy subjects were recruited to the study, of whom, 40 were healthy males (aged 18-75years) and 4 were post-menopausal females (aged 53-69 years). The average age of subjects recruited to this study was 42 years. The post-menopausal status of female subjects was confirmed by quantification of serum levels of estradiol and follicle stimulating hormone (FSH). Serum levels of estradiol were required to be <90 pmol/L, and follicle stimulating hormone levels >31 IU/L.
Before wounding, each subject received either a medicament of the invention (providing a 100 μl intradermal injection of a solution comprising 400 ng of 17β-oestradiol in a diluent comprising PBS and 5% v/v ethanol), or a control medicament (two used, providing a 100 μl intradermal injection of a solution comprising either 20 ng or 100 ng respectively of 17β-oestradiol in a diluent comprising PBS and 5% v/v ethanol). The experimental medicaments (either of the invention or control) were administered intradermally as a single dose at a volume of 100 μl per wound site, 10-30 minutes before wounding to sites on the upper, inner aspect of the arm. This administration was sufficient to prophylactically “prime” an area of 1 cm^2 of unwounded skin prior to wounding. Wounds were made with a 3 mm punch biopsy.
Biopsy sites were excised, using a 5 mm punch biopsy, three days after wounding. Excised wounds were preserved for histological assessment of wound width. All histological assessments were made using preserved 5 micron-thickness wound sections taken from the widest part of each excised biopsy site. Sections were stained with Haematoxylin and Eosin to aid visualisation of structural features, and measurements made using image analysis software. The wound diameter is the linear total wound diameter of the wound section measured in micrometres. The average wound diameter value was calculated from the 44 wounds of each treatment group.

[2] = 100 μg of oestradiol applied in a gel; six hours from application; cited from earlier work
[3] = matrix of U.S. Pat. No. 5,252,334, without drug delivery rate enhancers; cited from earlier work

`C[C@]12CC[C@@H]3c4ccc(O)cc4CC[C@H]3[C@@H]1CC[C@@H]2O` [17β-oestradiol] showed an average wound width ([1]; 20 ng 17β-oestradiol in 100 μl PBS/5% v/v ethanol, control medicament) of 2626 μm, an average wound width ([1]; 100 ng 17β-oestradiol in 100 μl PBS/5% v/v ethanol, control medicament) of 2612 μm and an average wound width ([1]; 400 ng 17β-oestradiol in 100 μl PBS/5% v/v ethanol, medicament of the invention) of 2480 μm. For the same molecule, the “wound width compared to control treated or untreated wounds” value ([1]; 400 ng 17β-oestradiol, intradermal) was “significantly decreased”, the “amount of applied oestradiol found in the skin or having passed through the skin” value [2] was 15.7 µg and the “rate of administration per hour per square centimetre of skin” value [3] was “approximately 0.2 μg”.
